Assays:
Assay in all cases: drug sensitivity score (DSS2, normalised partial AUC of dose-response, 72 h CellTiter-Glo viability) (DSS (dimensionless)); higher = more sensitive (stronger growth inhibition / cytotoxicity); extreme values may be limits of the assay
[1] = test system: WPMY-1
How it was run: (§1)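 Viability of low-passage primary prostate cancer-associated fibroblasts, PF179T, WPMY-1, LNCaP and 22Rv1 cells was read by CellTiter-Glo 2.0 luminescence 72 h after seeding onto compounds pre-dispensed in 384-well plates at five doses over a 10,000-fold range. Readings were scaled between vehicle and positive-control wells. Sensitivity is reported as a drug sensitivity score from BREEZE, namely a partial area under the fitted logistic curve divided by the log of its upper asymptote, where higher means more sensitive.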

[2] = test system: CAF#5 (primary prostate cancer-associated fibroblasts of myCAF-like type)
How it was run: as §1

[3] = test system: CAF#3 (primary prostate cancer-associated fibroblasts of myCAF-like type)
How it was run: as §1

[4] = test system: CAF#2 (primary prostate cancer-associated fibroblasts of iCAF-like type)
How it was run: as §1

[5] = test system: CAF#7 (primary prostate cancer-associated fibroblasts of myCAF-like type)
How it was run: as §1

[6] = test system: CAF#6 (primary prostate cancer-associated fibroblasts of iCAF-like type)
How it was run: as §1

[7] = test system: CAF#1 (primary prostate cancer-associated fibroblasts of myCAF-like type)
How it was run: as §1

[8] = test system: 22Rv1
How it was run: as §1

[9] = test system: PF179T
How it was run: as §1

[10] = test system: CAF#4 (primary prostate cancer-associated fibroblasts of iCAF-like type)
How it was run: as §1

[11] = test system: LNCAP
How it was run: as §1

SMILES	drug sensitivity score [1]	drug sensitivity score [2]	drug sensitivity score [3]	drug sensitivity score [4]	drug sensitivity score [5]	drug sensitivity score [6]	drug sensitivity score [7]	drug sensitivity score [8]	drug sensitivity score [9]	drug sensitivity score [10]	drug sensitivity score [11]
CN(C)C(=N)NC(=N)N [Metformin] (tested concentration range 10-100000 nM)	0	0	0	0	0	0	0	0	0	0	0
CN(Cc1cnc2nc(N)nc(N)c2n1)c1ccc(C(=O)N[C@@H](CCC(=O)O)C(=O)O)cc1 [Methotrexate] (tested concentration range 0.5-5000 nM)	17.4	0	0	0	0	0.8	0	0	0	1.1	16.6
C[C@H]1C[C@@H]2[C@H]([C@@H](O)C[C@@]3(C)[C@H]2CC[C@]3(O)C(=O)CO)[C@@]2(C)C=CC(=O)C=C12 [Methylprednisolone] (tested concentration range 1-10000 nM)	0	0	1.9	0	1.2	0	0	0	0	0	0
CO[C@@H]1[C@H](N(C)C(=O)c2ccccc2)C[C@H]2O[C@]1(C)n1c3ccccc3c3c4c(c5c6ccccc6n2c5c31)C(=O)NC4 [Midostaurin] (tested concentration range 1-10000 nM)	11.9	16.5	12.5	20.7	19.8	18.3	18.7	0	18.4	16.1	4.2
CO[C@@]12[C@H](COC(N)=O)C3=C(C(=O)C(C)=C(N)C3=O)N1C[C@@H]1N[C@@H]12 [Mitomycin C] (tested concentration range 1-10000 nM)	0	0	0	0.1	0	0	0	0	0	0	0.7
Clc1ccc(C(c2ccccc2Cl)C(Cl)Cl)cc1 (stereo not drawn) [Mitotane] (tested concentration range 1-10000 nM)	0	0	0.2	0	0	0	0	0	0	0	1.8
O=C1c2c(O)ccc(O)c2C(=O)c2c(NCCNCCO)ccc(NCCNCCO)c21 [Mitoxantrone] (tested concentration range 0.1-1000 nM)	15	6.6	1.2	8.9	7.2	4	3.7	10.7	9.9	5	14.7
CCS(=O)(=O)Nc1ccc(Oc2ccc(F)cc2F)c(-c2cn(C)c(=O)c3[nH]ccc23)c1 [Mivebresib] (tested concentration range 1-10000 nM)	22.9	15.5	19.3	19.7	11.4	13.3	19	23.5	11.1	10.7	30.7
Nc1ccccc1NC(=O)c1ccc(CNc2nccc(-c3cccnc3)n2)cc1 [Mocetinostat] (tested concentration range 1-10000 nM)	12	11.8	9.2	11.3	9.4	7.7	9.4	14.1	13.5	8.4	13.3
CCNC(=O)C[C@@H]1N=C(c2ccc(Cl)cc2)c2cc(OC)ccc2-n2c(C)nnc21 [Molibresib] (tested concentration range 1-10000 nM)	6.5	2.9	6.6	5.1	2.7	2.9	4.6	8.9	2.9	3.8	12.3
N#CCNC(=O)c1ccc(-c2ccnc(Nc3ccc(N4CCOCC4)cc3)n2)cc1 [Momelotinib] (tested concentration range 1-10000 nM)	6.1	4.1	4.4	4.6	3.1	2.8	3.9	0.9	2.3	2.8	5
CC1(C)CNc2cc(NC(=O)c3cccnc3NCc3ccncc3)ccc21 [Motesanib] (tested concentration range 1-10000 nM)	0	2.4	5.9	2.7	3.7	2.1	1.4	0	0	0.7	5.1
CCCN(CCC)C(=O)C1=Cc2ccc(-c3ccc(C(=O)N4CCCC4)cc3)cc2N=C(N)C1 [Motolimod] (tested concentration range 1-10000 nM)	0.3	0	1.7	1	0	1.5	0.4	1.1	0	0	3.2

Source: the supplement of paper PMC12592484
